# Measured values taken from patent US20250345392A1, “ANNEXIN A1 LIQUID PHARMACEUTICAL COMPOSITION” (ResoTher Pharma A/S, priority 2022, published 2025).
# Where two headings read alike, the source gives them in different places. Ends that are not written are not given here.
# Assay: Clinical test in humans, single 30-min i.v. infusion, plasma PK
# Assay type: in vivo
# Settings: human; for AUC(0-inf) / Cmax / Vd / clearance / AUC(0-t) / half-life / Tmax: in vivo, iv
# Procedure: A total of 8 healthy subjects were included in each group. Group 1 received 25 μg/kg of Peptide 1, Group 2 received 50 μg/kg of Peptide 1, Group 3 received 100 μg/kg of Peptide 1, Group 4 received 150 μg/kg of Peptide 1, Group 5 received 200 μg/kg of Peptide 1 and Group 7 received 400 μg/kg of Peptide 1.
# The tested liquid pharmaceutical composition has a pH of 8.2-8.4, and comprises the following: • i) 5 mg/ml of Peptide 1, • ii) 4% (w/w) mannitol, • iii) 1% (w/w) sucrose, • iv) 0.01% (w/w) Polysorbate-80, • v) 10 mM glycyl-glycine, and • vi) sterile water for injection.
# In these groups, 6 subjects received the active treatment (i.e. a single Peptide 1 30-min intravenous (i.v.) infusion corresponding to the above doses) and 2 received the placebo. In order to prevent any anticipated unblinding, the subjects under active treatment were recorded by the bioanalytical laboratory.
# Blood samples were collected for PK purpose for Peptide 1 determinations on Day 1 at the following time points: pre-dose, then, 10 min, 20 min, 30 min (30 min=0.5), 0.75, 1.0, 1.5, 2.0, 2.5, 3.0, 4.0, 6.0, 8.0, 12.0, 16.0 and 24.0 h after the infusion start.
# Venous whole blood samples were collected from all subjects.
# Plasma samples were analyzed for Peptide 1 using validated Liquid chromatography—Tandem Mass spectrometry (LC-MS/MS) methods by Charles River Laboratories (CRL).
# Derivation of PK parameters were carried out by PhinC Development using Phoenix WinNonlin® (Version Phoenix 8.1—Certara—Princeton—USA). A non-compartmental analysis (NCA) approach was chosen.
# For the calculation of the PK parameters and characteristics the following rules were applied: • All the plasma concentrations validated by the bioanalytical laboratory and provided to the pharmacokineticist were used for the PK analysis. • The theoretical PK blood sampling time points were used. • At time points in the lag-time between time zero and the first concentration equal or above limit of quantification (LOQ), concentrations below the LOQ (BLQ) were set to zero (0). • Concentrations BLQ between 2 concentrations equal or above LOQ were considered as missing. • Trailing concentrations (at time point between time of last measurable concentrations and time of last blood sample) BLQ were not used in calculations. • For concentration above the upper limit of quantification and reported as above limit of quantification (ALQ) in the final plasma concentration tables, ALQ was considered as missing for the PK analysis. • Not reported (NR) concentration was excluded from the PK analysis. • For the first administration, if pre-dose concentration was less than or equal to 5% of Cmax value in a PK profile, the subject's data was included in all PK measurements and calculations without any adjustments. If the pre-dose value was greater than 5% of Cmax, the subject was dropped from all statistical evaluations.
# The following PK parameters of Peptide 1, were derived for each subject receiving the active treatment on Day 1: • Cmax: The observed maximum concentration in plasma measured in a subject after dosing identified by inspection of the plasma drug concentration versus (vs.) time data by WinNonlin®. • tmax: The time at which Cmax was apparent, identified by inspection of the plasma drug concentration vs. time data by Phoenix WinNonlin®. • AUC0-24: The area under the concentration-time curve from time zero (pre-dose) to 24 h was calculated using a linear trapezoidal method. AUC0-24 was only calculated if there were at least 3 concentrations above LOQ. • AUC0-t: The area under the concentration-time curve from time zero (pre-dose) to the time of last quantifiable concentration was calculated using a linear trapezoidal method. The AUC was only calculated if there were at least 3 concentrations above LOQ. • ke: The terminal plasma elimination rate-constant was estimated from log-linear regression analysis of the terminal phase of the plasma concentration-time profile. […]
# [1] = 25 ug/kg, single 30-min i.v. infusion 25 μg/kg, GM
# [2] = 50 ug/kg, single 30-min i.v. infusion 50 μg/kg, mean
# [3] = 100 ug/kg, single 30-min i.v. infusion 100 μg/kg, mean
# [4] = 150 ug/kg, single 30-min i.v. infusion 150 μg/kg, GM
# [5] = 150 ug/kg, single 30-min i.v. infusion 150 μg/kg, mean
# [6] = 200 ug/kg, single 30-min i.v. infusion 200 μg/kg, GM
# [7] = 400 ug/kg, single 30-min i.v. infusion 400 μg/kg, mean
# [8] = single 30-min i.v. infusion 25 μg/kg, mean
# [9] = single 30-min i.v. infusion 50 μg/kg, GM
# [10] = single 30-min i.v. infusion 100 μg/kg, GM
# [11] = single 30-min i.v. infusion 200 μg/kg, mean
# [12] = single 30-min i.v. infusion 400 μg/kg, GM
# [13] = single 30-min i.v. infusion 400 μg/kg, mean
substance,measurement,setting,value
AMVSEFLKQAWFIENEEQEYVQTLKSSKGGPGSAVSPYPTFNPSSDV-NH2 [Peptide 1],increase of exposure parameters (Cmax and AUCs),between 100 μg/kg and 400 μg/kg (dose increased by 4-fold),about 4.3 fold
same,increase of exposure parameters (Cmax and AUCs),between 150 μg/kg and 400 μg/kg (dose increased by 2.7-fold),around 3.2 fold
same,increase of exposure parameters (Cmax and AUCs),between 200 μg/kg and 400 μg/kg (dose increased by 2 fold),around 2 fold
same,AUC(0-inf),[1],211 ng·h/mL
same,Cmax,[1],161 ng/mL
same,Vd,[1],0.13 L/kg
same,clearance,[1],2 mL/min/kg
same,AUC(0-t),"25 ug/kg, single 30-min i.v. infusion 25 μg/kg, GM, read-out: AUC0-24",211 ng·h/mL
same,AUC(0-t),"25 ug/kg, single 30-min i.v. infusion 25 μg/kg, GM, read-out: AUC0-t",130 ng·h/mL
same,half-life,"25 ug/kg, single 30-min i.v. infusion 25 μg/kg, GM, read-out: t1/2 (converted)",47.4 min
same,Vd,"25 ug/kg, single 30-min i.v. infusion 25 μg/kg, mean",0.14 L/kg
same,AUC(0-t),"25 ug/kg, single 30-min i.v. infusion 25 μg/kg, mean, read-out: AUC0-t",132 ng·h/mL
same,AUC(0-inf),"50 ug/kg, single 30-min i.v. infusion 50 μg/kg, GM",456 ng·h/mL
same,AUC(0-t),"50 ug/kg, single 30-min i.v. infusion 50 μg/kg, GM, read-out: AUC0-24",457 ng·h/mL
same,AUC(0-t),"50 ug/kg, single 30-min i.v. infusion 50 μg/kg, GM, read-out: AUC0-t",369 ng·h/mL
same,half-life,"50 ug/kg, single 30-min i.v. infusion 50 μg/kg, GM, read-out: t1/2 (converted)",54 min
same,AUC(0-inf),[2],464 ng·h/mL
same,Cmax,[2],375 ng/mL
same,Vd,[2],0.14 L/kg
same,clearance,[2],1.83 mL/min/kg
same,AUC(0-t),"50 ug/kg, single 30-min i.v. infusion 50 μg/kg, mean, read-out: AUC0-24",464 ng·h/mL
same,AUC(0-t),"50 ug/kg, single 30-min i.v. infusion 50 μg/kg, mean, read-out: AUC0-t",378 ng·h/mL
same,half-life,"50 ug/kg, single 30-min i.v. infusion 50 μg/kg, mean, read-out: t1/2 (converted)",55.2 min
same,Cmax,"100 ug/kg, single 30-min i.v. infusion 100 μg/kg, GM",899 ng/mL
same,half-life,"100 ug/kg, single 30-min i.v. infusion 100 μg/kg, GM, read-out: t1/2 (converted)",67.8 min
same,AUC(0-inf),[3],1110 ng·h/mL
same,Cmax,[3],916 ng/mL
same,Vd,[3],0.15 L/kg
same,clearance,[3],1.5 mL/min/kg
same,AUC(0-t),"100 ug/kg, single 30-min i.v. infusion 100 μg/kg, mean, read-out: AUC0-24",1110 ng·h/mL
same,AUC(0-t),"100 ug/kg, single 30-min i.v. infusion 100 μg/kg, mean, read-out: AUC0-t",1000 ng·h/mL
same,half-life,"100 ug/kg, single 30-min i.v. infusion 100 μg/kg, mean, read-out: t1/2 (converted)",69 min
same,AUC(0-inf),[4],1490 ng·h/mL
same,Cmax,[4],1250 ng/mL
same,Vd,[4],0.16 L/kg
same,AUC(0-t),"150 ug/kg, single 30-min i.v. infusion 150 μg/kg, GM, read-out: AUC0-24",1490 ng·h/mL
same,AUC(0-t),"150 ug/kg, single 30-min i.v. infusion 150 μg/kg, GM, read-out: AUC0-t",1370 ng·h/mL
same,half-life,"150 ug/kg, single 30-min i.v. infusion 150 μg/kg, GM, read-out: t1/2 (converted)",67.8 min
same,AUC(0-inf),[5],1520 ng·h/mL
same,Cmax,[5],1280 ng/mL
same,Vd,[5],0.17 L/kg
same,clearance,[5],1.67 mL/min/kg
same,AUC(0-t),"150 ug/kg, single 30-min i.v. infusion 150 μg/kg, mean, read-out: AUC0-24",1520 ng·h/mL
same,AUC(0-t),"150 ug/kg, single 30-min i.v. infusion 150 μg/kg, mean, read-out: AUC0-t",1400 ng·h/mL
same,half-life,"150 ug/kg, single 30-min i.v. infusion 150 μg/kg, mean, read-out: t1/2 (converted)",69 min
same,AUC(0-inf),[6],2280 ng·h/mL
same,Cmax,[6],1700 ng/mL
same,Vd,[6],0.18 L/kg
same,clearance,[6],1.5 mL/min/kg
same,AUC(0-t),"200 ug/kg, single 30-min i.v. infusion 200 μg/kg, GM, read-out: AUC0-24",2280 ng·h/mL
same,AUC(0-t),"200 ug/kg, single 30-min i.v. infusion 200 μg/kg, GM, read-out: AUC0-t",2120 ng·h/mL
same,half-life,"200 ug/kg, single 30-min i.v. infusion 200 μg/kg, GM, read-out: t1/2 (converted)",86.4 min
same,AUC(0-inf),[7],4870 ng·h/mL
same,Vd,[7],0.19 L/kg
same,clearance,[7],1.33 mL/min/kg
same,AUC(0-t),"400 ug/kg, single 30-min i.v. infusion 400 μg/kg, mean, read-out: AUC0-24",4870 ng·h/mL
same,AUC(0-t),"400 ug/kg, single 30-min i.v. infusion 400 μg/kg, mean, read-out: AUC0-t",4720 ng·h/mL
same,half-life,"400 ug/kg, single 30-min i.v. infusion 400 μg/kg, mean, read-out: t1/2 (converted)",98.4 min
same,AUC(0-inf),[8],211 ng·h/mL
same,Cmax,[8],162 ng/mL
same,clearance,[8],2 mL/min/kg
same,AUC(0-t),"single 30-min i.v. infusion 25 μg/kg, mean, read-out: AUC0-24",211 ng·h/mL
same,half-life,"single 30-min i.v. infusion 25 μg/kg, mean, read-out: t1/2 (converted)",47.4 min
same,Cmax,[9],371 ng/mL
same,Vd,[9],0.14 L/kg
same,clearance,[9],1.83 mL/min/kg
same,AUC(0-inf),[10],1100 ng·h/mL
same,Vd,[10],0.15 L/kg
same,clearance,[10],1.5 mL/min/kg
same,AUC(0-t),"single 30-min i.v. infusion 100 μg/kg, GM, read-out: AUC0-24",1100 ng·h/mL
same,AUC(0-t),"single 30-min i.v. infusion 100 μg/kg, GM, read-out: AUC0-t",991 ng·h/mL
same,clearance,"single 30-min i.v. infusion 150 μg/kg, GM",1.67 mL/min/kg
same,AUC(0-inf),[11],2280 ng·h/mL
same,Cmax,[11],1700 ng/mL
same,Vd,[11],0.18 L/kg
same,clearance,[11],1.5 mL/min/kg
same,AUC(0-t),"single 30-min i.v. infusion 200 μg/kg, mean, read-out: AUC0-24",2280 ng·h/mL
same,AUC(0-t),"single 30-min i.v. infusion 200 μg/kg, mean, read-out: AUC0-t",2120 ng·h/mL
same,half-life,"single 30-min i.v. infusion 200 μg/kg, mean, read-out: t1/2 (converted)",87 min
same,AUC(0-inf),[12],4840 ng·h/mL
same,Cmax,[12],3400 ng/mL
same,Vd,[12],0.19 L/kg
same,clearance,[12],1.33 mL/min/kg
same,AUC(0-t),"single 30-min i.v. infusion 400 μg/kg, GM, read-out: AUC0-24",4840 ng·h/mL
same,AUC(0-t),"single 30-min i.v. infusion 400 μg/kg, GM, read-out: AUC0-t",4690 ng·h/mL
same,half-life,"single 30-min i.v. infusion 400 μg/kg, GM, read-out: t1/2 (converted)",97.2 min
same,Cmax,[13],3420 ng/mL
same,Vd,[13],~0.19 L/kg
same,clearance,[13],~1.33 mL/min/kg
same,half-life,"single 30-min i.v. infusion, range at all dose levels, read-out: GM t1/2",48 to 96 min
same,time of first measurable concentrations after the start of infusion,"single 30-min i.v. infusion, all subjects",0.16 h
same,time up to which concentrations were measurable in all subjects after the start of infusion,"single 30-min i.v. infusion, highest dose",at least 6 hours
same,time up to which concentrations were measurable in all subjects after start of the infusion,"single 30-min i.v. infusion, lowest dose",at least 1 hour
same,Tmax,[1],30 min
same,Tmax,"50 ug/kg, single 30-min i.v. infusion 50 μg/kg, median",30 min
same,Tmax,"100 ug/kg, single 30-min i.v. infusion 100 μg/kg, median",30 min
same,Tmax,"150 ug/kg, single 30-min i.v. infusion 150 μg/kg, median",30 min
same,Tmax,[6],30 min
same,Tmax,"400 ug/kg, single 30-min i.v. infusion 400 μg/kg, median",30 min
same,Tmax,"single 30-min i.v. infusion, all subjects (time of the end of infusion)",30 min
